Measurements taken from patent publication US5358964A, “Benzylidene-lactone and their thiocarbonyl analogs as inhibitors of proteoglycan degradation” (Warner-Lambert Company, priority 1993, dated 1994).

Test system: IL-1-induced proteoglycan degradation in bovine nasal cartilage
Assay: Bovine Nasal Cartilage (BNC) assay: inhibition of IL-1-induced proteoglycan degradation (chondroitin sulfate release, 1,9-DMB)
Type: cell-based
Settings: Bos taurus, bovine nasal cartilage explants, IL-1β (500 U); for IC50: 48 h with compound + 24 h fresh media, dose responses 10, 1, 0.1 μM
Description: The BNC (bovine nasal cartilage) assay provides a model for evaluating chrondroprotective compounds that block cartilage degradation through inhibition of enzyme activity or by altering the gene expression of the matrix metalloproteinase stromelysin.
Bovine nasal cartilage is obtained from a local slaughter house (Milan, Mich.); cell culture reagents from Gibco (Grand Island, N.Y.); human recombinant Interleukin-1β (IL-1β) from Boehringer Mannheim (Indianapolis, Ind.); DMB from Polysciences (Warrington, Pa.); Falcon 24 well flat-bottom tissue culture plates from Becton Dickinson (Lincoln Park, N.J.); disposable 20-mL scintillation vials from Kimble Glass (Vinland, N.J.); Papain from Sigma (P-3125, St. Louis, Miss.); high purity dimethyl sulfoxide from Burdic & Jackson (081-1, Distributed by Baxter Healthcare, McGraw Park, Ill.); Sarstedt vials for radioimmune assays (Sarstedt, Newton, N.C.); Sarstedt 96-vial aluminum racks (Sarstedt, Newton, N. C.); Cetus Pro/Pette (Perkin Elmer, Norwalk, Conn.).
The assay is accomplished in two phases. The cartilage plugs are first incubated with IL-1 in the presence of compounds. The amount of proteoglycan released is then quantified by measuring chondroitin sulfate present in the media using the 1,9-Dimethylmethylene Blue Assay.
Cartilage Culture. Bovine nasal septum is dissected free of surrounding tissue and wiped with 70% alcohol. A sterile cork borer is used to remove 5-mm cartilage disks of 2 to 3 mm thickness. Explants are equilibrated for 96 hours in F-12 supplemented with 10% fetal calf serum (FCS) and antibiotics at 37° C. in a humidified atmosphere of 95% air and 5% CO2. Explants are then rinsed with 1 mL F-12 Nutrient Mixture (without phenol red) in order to remove traces of FCS. Each treatment group is done in triplicate allowing: controls (500 μL F-12 medium + 110 μL PBS with 0.1% BSA + 7 μL DMSO); IL-1β (500 μL F-12 medium without phenol red + 100 μL IL-1β (500 U) + 7 μL DMSO + 10 μL PBS with 0.1 % BSA); and dose responses (10, 1, and 0.1 μM) (F-12 medium without phenol red + 100 μL IL-1β (500 U) + 7 μL compound dissolved in DMSO + 10 μL PBS with 0.1% BSA), to be tested per each 24-well plate. The cartilage plugs are incubated in the presence of conditioned media (IL-1β + compound) for 48 hours. […]
Quantitation of Cartilage Degradation. The ability of a compound to inhibit proteoglycan released from the cartilage plugs is quantified by measuring chondroitin sulfate. […] This color change is measured using a Titertek Multiscan MCC 340 plate reader at 540 nm. […] It is necessary to dilute (1:5, 1:10) the medium before a […] is performed by adding 10 μL of collected media to 290 μL DMF (16 mg dye/1 L of 0.1M formate buffer, pH 3.5, containing 5 mL ethanol) and reading […]. […]

| Structure (SMILES) | IC50 | further results |
| --- | --- | --- |
| Cc1ccc(Cl)c(Nc2ccccc2/C=C2\CCOC2=O)c1Cl [Example 1, (E)-3-[[2-[(2,6-Dichloro-3-methylphenyl)amino]phenyl]methylene]4,5-dihydro-2(3H)-furanone] | 390 nM |  |
| Cc1ccc(Cl)c(Nc2ccccc2/C=C2\CCOC2=S)c1Cl [Example 2, (E)-3-[[2-[(2,6-Dichloro-3-methylphenyl)amino]phenyl]methylene]-4,5-dihydro-2(3H) -furanthione] |  | inhibition at 10 µM (@ 10.0 μM, read-out: Percent Inhibition @ μM): > 50% |
| O=C1OCC/C1=C\c1ccccc1Nc1cccc(C(F)(F)F)c1 [Example 3, (E)-4,5-Dihydro-3-[[2-[[3-(trifluoromethyl)phenyl]-amino]phenyl]methylene]-2(3H)-furanone] | 520 nM |  |
| O=C1OCC/C1=C\c1ccccc1Nc1ccccc1 [Example 4, (E)-4,5-Dihydro-3-[[2-(phenylamino)phenyl]methylene]2(3H) -furanone] |  | inhibition at 0.1 µM (@ 0.10 μM, read-out: Percent Inhibition @ μM): 70% |
